One experiment has as its system A375 cells. Nature of the experiment: cells. To be noted: Homo sapiens, A-375, read-out: A375 Viability EC50.
Experiment [1] addresses T1, RAF kinases (Homo sapiens, UniProt P15056, V600E). The settings on record: read-out: BRAF V600E Kd; BRAF V600E.
For experiment [2], the system named is 290 distinct kinases tested excluding mutant variants (321 in the larger panel).
Experiment [3] concerns MEK1 phosphorylation in the A375 human melanoma cell line. The experiment is described as follows: cells. To be noted: A-375, read-out: pMEK IC50.
For experiment [4], the target named is RAF kinases (Homo sapiens, UniProt P04049). Nature of the experiment: biochemical.
Chain of RAF kinases (Homo sapiens, UniProt P04049) (P04049 whole entry): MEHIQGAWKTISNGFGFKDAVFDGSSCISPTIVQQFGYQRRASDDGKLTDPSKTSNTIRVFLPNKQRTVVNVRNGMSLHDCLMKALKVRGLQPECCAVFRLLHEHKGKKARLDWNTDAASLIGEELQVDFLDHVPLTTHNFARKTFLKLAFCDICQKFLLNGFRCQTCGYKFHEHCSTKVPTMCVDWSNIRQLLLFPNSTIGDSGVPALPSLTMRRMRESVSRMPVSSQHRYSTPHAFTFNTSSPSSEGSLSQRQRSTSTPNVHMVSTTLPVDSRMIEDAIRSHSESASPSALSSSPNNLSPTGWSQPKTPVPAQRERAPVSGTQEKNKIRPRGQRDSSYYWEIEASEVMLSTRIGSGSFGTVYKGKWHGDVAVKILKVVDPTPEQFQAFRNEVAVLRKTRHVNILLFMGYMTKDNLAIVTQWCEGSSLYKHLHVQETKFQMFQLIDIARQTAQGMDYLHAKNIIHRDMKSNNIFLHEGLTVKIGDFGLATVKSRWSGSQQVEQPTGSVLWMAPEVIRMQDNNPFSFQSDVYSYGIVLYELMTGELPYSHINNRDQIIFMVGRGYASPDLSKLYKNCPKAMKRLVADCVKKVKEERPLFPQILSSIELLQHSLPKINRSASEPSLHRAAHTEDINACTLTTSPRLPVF
Experiment [5] has as its target RAF kinases (Homo sapiens, UniProt P15056). The experiment is described as follows: biochemical.
The target of experiment [6] is T1, RAF kinases. Nature of the experiment: biochemical.
The mark [7] stands for this setting: no asterisk: panel of 290 distinct kinases.

The record followed here is US8618289B2 (Ambit Biosciences Corporation, priority 2008, dated 2013).

Read-outs that look alike come from different tables or passages of the source.

T1 sequence (P15056 whole entry V600E): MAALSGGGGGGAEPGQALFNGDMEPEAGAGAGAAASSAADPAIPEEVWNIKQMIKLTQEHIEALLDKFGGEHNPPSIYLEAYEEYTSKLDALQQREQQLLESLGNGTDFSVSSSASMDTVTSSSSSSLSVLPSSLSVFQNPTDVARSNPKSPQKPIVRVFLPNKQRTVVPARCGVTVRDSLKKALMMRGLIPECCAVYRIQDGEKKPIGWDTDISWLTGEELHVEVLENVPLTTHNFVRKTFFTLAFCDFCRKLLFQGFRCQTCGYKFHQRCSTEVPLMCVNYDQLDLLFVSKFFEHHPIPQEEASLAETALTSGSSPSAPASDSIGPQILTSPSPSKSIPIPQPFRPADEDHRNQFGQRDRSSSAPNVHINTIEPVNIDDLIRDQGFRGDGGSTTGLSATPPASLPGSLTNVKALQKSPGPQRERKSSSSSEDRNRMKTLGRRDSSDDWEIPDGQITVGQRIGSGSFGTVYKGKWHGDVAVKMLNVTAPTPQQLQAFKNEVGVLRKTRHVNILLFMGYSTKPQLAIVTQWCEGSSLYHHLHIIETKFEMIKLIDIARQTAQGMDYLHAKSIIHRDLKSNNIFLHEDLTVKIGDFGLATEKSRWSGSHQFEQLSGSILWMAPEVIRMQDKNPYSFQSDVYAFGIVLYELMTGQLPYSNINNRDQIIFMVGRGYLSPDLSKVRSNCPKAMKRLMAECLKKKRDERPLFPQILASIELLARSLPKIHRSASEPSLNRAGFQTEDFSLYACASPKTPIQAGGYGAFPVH
Chain of RAF kinases (Homo sapiens, UniProt P15056) (P15056 whole entry): as the sequence (P15056 whole entry V600E) above, with E600V counted along it

A word on the EC50: it is the midpoint of the concentration-response curve. A word on the Kd: it is the free concentration of one partner at which half of the binding sites on the other are occupied at equilibrium, for simple one-to-one binding. Broadly, the IC50 is the point on the concentration scale where inhibition reaches its midpoint. On to `COc1cc2ncnc(Sc3cccc(NC(=O)Nc4cc(C(C)(C)C)nn4-c4cccnc4)c3)c2cc1OC` [Ex 323, 1-(3-tert-butyl-1-(pyridin-3-yl)-1H-pyrazol-5-yl)-3-(3-(6,7-dimethoxyquinazolin-4-ylthio)phenyl)urea], for which the EC50 in the experiment on A375 cells fell in the range of 250 to 500 nM. The Kd at RAF kinases [1] is below 250 nM; on RAF kinases [4], 500 to 1000 nM; at RAF kinases [5], 500 to 1000 nM. The S35 entry in experiment [2] (setting [7]) was “D (D > 0.40)”. Besides, the IC50 in experiment [3] is below 250 nM.
Take `COc1cc2ncnc(Oc3cccc(NC(=O)Nc4cc(C5(C(F)(F)F)CC5)nn4-c4ccc(C)cc4)c3)c2cc1OC` [Ex 346, 1-(3-(6,7-dimethoxyquinazolin-4-yloxy)phenyl)-3-(1-p-tolyl-3-(1-(trifluoromethyl)cyclopropyl)-1H-pyrazol-5-yl)urea]: in experiment [2] (setting [7]), the S35 result is listed as “D (D > 0.40)”. Further, in experiment [3], the IC50 was below 250 nM. Further, the Kd is below 250 nM on RAF kinases [6], above 1000 nM at RAF kinases [4] and above 1000 nM on RAF kinases [5].
Regarding `COc1cc2ncnc(Oc3cccc(NC(=O)Nc4cc(C(C)(F)F)nn4-c4ccccc4)c3)c2cc1OC` [Ex 318, 1-(3-(1,1-difluoroethyl)-1-phenyl-1H-pyrazol-5-yl)-3-(3-(6,7-dimethoxyquinazolin-4-yloxy)phenyl)urea], the EC50 with A375 cells is below 250 nM. The Kd was below 250 nM on RAF kinases [1], 250 to 500 nM at RAF kinases [4] and 250 to 500 nM on RAF kinases [5]. For the same compound, in experiment [2] (setting [7]), the S35 result was “C (0.20 < C ≦ 0.40)”. Further, the IC50 in experiment [3] was below 250 nM.
Turning to `COc1cc2ncnc(Oc3cccc(NC(=O)Nc4cc(C(C)(C)C)nn4-c4cc[nH]c(=O)c4)c3)c2cc1OC` [Ex 313, 1-(3-tert-butyl-1-(2-oxo-1,2-dihydropyridin-4-yl)-1H-pyrazol-5-yl)-3-(3-(6,7-dimethoxyquinazolin-4-yloxy)phenyl)urea], the EC50 in the experiment with A375 cells lay within 500 to 1000 nM. For the same compound, the Kd was below 250 nM on RAF kinases [1], 250 to 500 nM on RAF kinases [4] and 250 to 500 nM on RAF kinases [5]. Further, the S35 entry in experiment [2] (setting [7]) is “D (D > 0.40)”. For the same compound, the IC50 in experiment [3] was in the range of 250 to 500 nM.
Consider `COc1cc2ncnc(Sc3cccc(NC(=O)Nc4cc(C(C)(C)C)nn4-c4ccc(C#N)cc4)c3)c2cc1OC` [Ex 329, 1-(3-tert-butyl-1-(4-cyanophenyl)-1H-pyrazol-5-yl)-3-(3-(6,7-dimethoxyquinazolin-4-ylthio)phenyl)urea], for which the S35 result in experiment [2] (setting [7]) is listed as “D (D > 0.40)”. Moreover, the IC50 in experiment [3] is below 250 nM. Also, the Kd was in the range of 250 to 500 nM at RAF kinases [6], 500 to 1000 nM on RAF kinases [4] and 250 to 500 nM on RAF kinases [5].
`COc1cc2ncnc(Sc3cccc(NC(=O)Nc4cc(C(C)(F)F)nn4-c4ccccc4)c3)c2cc1OC` [Ex 319, 1-(3-(1,1-difluoroethyl)-1-phenyl-1H-pyrazol-5-yl)-3-(3-(6,7-dimethoxyquinazolin-4-ylthio)phenyl)urea]: the EC50 in the experiment on A375 cells is below 250 nM. Besides, the figures for the Kd at RAF kinases [1], on RAF kinases [4] and on RAF kinases [5] were below 250 nM, 250 to 500 nM and 500 to 1000 nM, respectively. The S35 entry in experiment [2] (setting [7]) is on record as “C (0.20 < C ≦ 0.40)”. Moreover, in experiment [3], the half-inhibitory concentration (IC50) is below 250 nM.
Take `COc1cc2ncnc(Oc3cccc(NC(=O)Nc4cc(C(C)(C)C)nn4-c4cccnc4C)c3)c2cc1OC` [Ex 305, 1-(3-tert-butyl-1-(2-methylpyridin-3-yl)-1H-pyrazol-5-yl)-3-(3-(6,7-dimethoxyquinazolin-4-yloxy)phenyl)urea]: the EC50 with A375 cells is below 250 nM. For the same compound, the Kd was below 250 nM on RAF kinases [1], 250 to 500 nM on RAF kinases [4] and 500 to 1000 nM at RAF kinases [5]. In addition, the S35 entry in experiment [2] (setting [7]) is on record as “D (D > 0.40)”. Besides, in experiment [3], the IC50 is below 250 nM.
As for `COc1cc2ncnc(Oc3cccc(NC(=O)Nc4cc(C(F)(F)F)nn4-c4cccc(C)c4)c3)c2cc1OC` [Ex 338, 1-(3-(6,7-dimethoxyquinazolin-4-yloxy)phenyl)-3-(1-m-tolyl-3-(trifluoromethyl)-1H-pyrazol-5-yl)urea], in the experiment with A375 cells, the EC50 was below 250 nM. In addition, the results for the Kd at RAF kinases [1], at RAF kinases [4] and on RAF kinases [5] were below 250 nM, 250 to 500 nM and 500 to 1000 nM, respectively. In addition, the S35 result in experiment [2] (setting [7]) is listed as “C (0.20 < C ≦ 0.40)”. Further, in experiment [3], the IC50 was below 250 nM.
As for `COc1cc2ncnc(Oc3cccc(NC(=O)Nc4cc(C(C)C)nn4-c4ccccc4)c3)c2cc1OC` [Ex 324, 1-(3-(6,7-dimethoxyquinazolin-4-yloxy)phenyl)-3-(3-isopropyl-1-phenyl-1H-pyrazol-5-yl)urea], the EC50 with A375 cells was below 250 nM. In addition, the Kd was below 250 nM on RAF kinases [1], 250 to 500 nM on RAF kinases [4] and 250 to 500 nM at RAF kinases [5]. Besides, in experiment [2] (setting [7]), the S35 entry is “D (D > 0.40)”. In addition, the IC50 in experiment [3] was below 250 nM.
Consider `COc1cc2ncnc(Oc3cccc(NC(=O)Nc4cc(C(C)(C)C)nn4CC(C)C)c3)c2cc1OC` [Ex 332, 1-(3-tert-butyl-1-isobutyl-1H-pyrazol-5-yl)-3-(3-(6,7-dimethoxyquinazolin-4-yloxy)phenyl)urea], for which the EC50 in the experiment with A375 cells was above 1000 nM. In addition, the Kd at RAF kinases [1] is below 250 nM; on RAF kinases [4] it was 250 to 500 nM; on RAF kinases [5], 250 to 500 nM. In experiment [2] (setting [7]), the S35 result is recorded as “C (0.20 < C ≦ 0.40)”. In addition, the IC50 in experiment [3] was in the range of 500 to 1000 nM.
`COc1cc2ncnc(Sc3cccc(NC(=O)Nc4cc(C(C)(C)C)nn4C(C)C)c3)c2cc1OC` [Ex 335, 1-(3-tert-butyl-1-isopropyl-1H-pyrazol-5-yl)-3-(3-(6,7-dimethoxyquinazolin-4-ylthio)phenyl)urea]: the EC50 in the experiment with A375 cells is above 1000 nM. The Kd on RAF kinases [1] was below 250 nM; at RAF kinases [4], 250 to 500 nM; at RAF kinases [5] it was 250 to 500 nM. The S35 entry in experiment [2] (setting [7]) is listed as “C (0.20 < C ≦ 0.40)”. In addition, the IC50 in experiment [3] fell in the range of 250 to 500 nM.
Consider `COc1cc2ncnc(Sc3cccc(NC(=O)Nc4cc(C(F)(F)F)nn4-c4cccc(C)c4)c3)c2cc1OC` [Ex 339, 1-(3-(6,7-dimethoxyquinazolin-4-ylthio)phenyl)-3-(1-m-tolyl-3-(trifluoromethyl)-1H-pyrazol-5-yl)urea], for which, in experiment [2] (setting [7]), the S35 entry was “C (0.20 < C ≦ 0.40)”. The IC50 in experiment [3] was below 250 nM. For the same compound, the Kd on RAF kinases [6] is 250 to 500 nM; on RAF kinases [4], 500 to 1000 nM; on RAF kinases [5] it was above 1000 nM.
`COc1cc2ncnc(Oc3cccc(NC(=O)Nc4cc(C(C)(C)C)nn4C(C)C)c3)c2cc1OC` [Ex 334, 1-(3-tert-butyl-1-isopropyl-1H-pyrazol-5-yl)-3-(3-(6,7-dimethoxyquinazolin-4-yloxy)phenyl)urea]: in the experiment with A375 cells, the EC50 was in the range of 500 to 1000 nM. Moreover, the Kd is below 250 nM on RAF kinases [1], 250 to 500 nM on RAF kinases [4] and 250 to 500 nM on RAF kinases [5]. Further, the S35 entry in experiment [2] (setting [7]) is “C (0.20 < C ≦ 0.40)”. For the same compound, the IC50 in experiment [3] fell in the range of 500 to 1000 nM.
Turning to `COc1cc2ncnc(Sc3cccc(NC(=O)Nc4cc(C(C)C)nn4-c4ccccc4)c3)c2cc1OC` [Ex 325, 1-(3-(6,7-dimethoxyquinazolin-4-ylthio)phenyl)-3-(3-isopropyl-1-phenyl-1H-pyrazol-5-yl)urea], in the experiment with A375 cells, the EC50 was below 250 nM. The Kd was below 250 nM at RAF kinases [1], 250 to 500 nM on RAF kinases [4] and 250 to 500 nM on RAF kinases [5]. Besides, the S35 result in experiment [2] (setting [7]) is on record as “C (0.20 < C ≦ 0.40)”. Besides, in experiment [3], the IC50 was below 250 nM.
Take `COc1cc2c(Sc3cccc(NC(=O)Nc4cc(C(C)(C)F)no4)c3)ncnc2cc1OCCN1CCOCC1` [Ex 248, 1-(3-(2-fluoropropan-2-yl)isoxazol-5-yl)-3-(3-(6-methoxy-7-(2-morpholinoethoxy)quinazolin-4-ylthio)phenyl)urea]: the EC50 in the experiment with A375 cells was above 1000 nM. The Kd is below 250 nM on RAF kinases [1], 250 to 500 nM on RAF kinases [4] and 250 to 500 nM on RAF kinases [5]. In experiment [2] (asterisk: panel of 321 distinct kinases), the S35 entry was “C* (0.20 < C ≦ 0.40)”. The half-maximal inhibitory concentration (IC50) in experiment [3] is 250 to 500 nM.
In the case of `COc1cc2ncnc(Oc3cccc(NC(=O)Nc4cc(C5CCC5)nn4-c4ccccc4)c3)c2cc1OC` [Ex 355, 1-(3-cyclobutyl-1-phenyl-1H-pyrazol-5-yl)-3-(3-(6,7-dimethoxyquinazolin-4-yloxy)phenyl)urea], the EC50 with A375 cells was below 250 nM. Besides, the Kd at RAF kinases [1] was below 250 nM; on RAF kinases [4] it was 500 to 1000 nM; on RAF kinases [5] it was 500 to 1000 nM. The S35 entry in experiment [2] (setting [7]) is listed as “C (0.20 < C ≦ 0.40)”. Moreover, the IC50 in experiment [3] is below 250 nM.
As for `COc1cc2ncnc(Oc3cccc(NC(=O)Nc4cc(C(C)(C)C)nn4-c4ccc(C)nc4)c3)c2cc1OC` [Ex 312, 1-(3-tert-butyl-1-(6-methylpyridin-3-yl)-1H-pyrazol-5-yl)-3-(3-(6,7-dimethoxyquinazolin-4-yloxy)phenyl)urea], in the experiment with A375 cells, the EC50 is below 250 nM. Further, the Kd at RAF kinases [1] is below 250 nM; on RAF kinases [4] it was 250 to 500 nM; on RAF kinases [5] it was 500 to 1000 nM. For the same compound, the S35 result in experiment [2] (setting [7]) is recorded as “D (D > 0.40)”. For the same compound, the IC50 in experiment [3] was below 250 nM.
Turning to `COc1cc2ncnc(Oc3cccc(NC(=O)Nc4cc(C(C)C)nn4-c4cncc(F)c4)c3)c2cc1OC` [Ex 314, 1-(3-(6,7-dimethoxyquinazolin-4-yloxy)phenyl)-3-(1-(5-fluoropyridin-3-yl)-3-isopropyl-1H-pyrazol-5-yl)urea], in the experiment with A375 cells, the EC50 is below 250 nM. For the same compound, the Kd at RAF kinases [1] was below 250 nM; on RAF kinases [4], 250 to 500 nM; at RAF kinases [5], 500 to 1000 nM. Moreover, the S35 result in experiment [2] (setting [7]) is reported as “D (D > 0.40)”. Moreover, in experiment [3], the IC50 was 250 to 500 nM.
On to `COc1cc2ncnc(Oc3cccc(NC(=O)Nc4cc(C(C)(C)C#N)nn4-c4ccccc4)c3)c2cc1OC` [Ex 308, 1-(3-(2-cyanopropan-2-yl)-1-phenyl-1H-pyrazol-5-yl)-3-(3-(6,7-dimethoxyquinazolin-4-yloxy)phenyl)urea], for which the EC50 with A375 cells lay in the range of 250 to 500 nM. Further, the Kd is below 250 nM at RAF kinases [1], 250 to 500 nM at RAF kinases [4] and 250 to 500 nM at RAF kinases [5]. In addition, the S35 result in experiment [2] (setting [7]) was “D (D > 0.40)”. For the same compound, in experiment [3], the IC50 is below 250 nM.
